What was measured:
Format in all cases: biochemical
TYK2 = target: T1, TYK2 (Homo sapiens, UniProt P29597); experiment: Functional assay of protein Janus kinases (Caliper mobility shift), TYK2; settings: ATP 20 μM, incubation 45 min; read-out: TYK2 enzymatic activity (IC50) score
T1 construct: purchased Carna Biosciences 08-147
T1 sequence (P29597 871-1187 limits assumed): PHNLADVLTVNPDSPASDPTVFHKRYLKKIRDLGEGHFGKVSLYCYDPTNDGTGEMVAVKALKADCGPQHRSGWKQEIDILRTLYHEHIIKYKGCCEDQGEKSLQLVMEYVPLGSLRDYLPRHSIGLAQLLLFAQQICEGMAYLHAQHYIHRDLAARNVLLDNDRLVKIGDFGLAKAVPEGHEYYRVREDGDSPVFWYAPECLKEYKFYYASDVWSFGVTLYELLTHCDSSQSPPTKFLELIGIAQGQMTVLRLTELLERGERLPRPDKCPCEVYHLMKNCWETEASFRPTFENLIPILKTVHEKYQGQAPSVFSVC
Experimental: (§1) The functional assays of protein Janus kinases were carried out in 384-well plates using a final volume of 30 μl. […] The reaction was reads in a “Caliper EzReader LabChip 3000” (Caliper, Hopkinton, Mass.) reader, based on electrophoretic mobility of the fluorescent substrate and the phosphorylated product.
(§2) The inhibition percentages were calculated by comparison between control reactions, for 100% of inhibition and reactions with only DMSO for 0% of inhibition.

JAK2 = target: T2, JAK2 (Homo sapiens, UniProt O60674); experiment: Functional assay of protein Janus kinases (Caliper mobility shift), JAK2; settings: ATP 300 μM, incubation 30 min; read-out: JAK2 enzymatic activity (IC50) score
T2 construct: purchased Carna Biosciences 08-045
T2 sequence (O60674 826-1132 limits assumed): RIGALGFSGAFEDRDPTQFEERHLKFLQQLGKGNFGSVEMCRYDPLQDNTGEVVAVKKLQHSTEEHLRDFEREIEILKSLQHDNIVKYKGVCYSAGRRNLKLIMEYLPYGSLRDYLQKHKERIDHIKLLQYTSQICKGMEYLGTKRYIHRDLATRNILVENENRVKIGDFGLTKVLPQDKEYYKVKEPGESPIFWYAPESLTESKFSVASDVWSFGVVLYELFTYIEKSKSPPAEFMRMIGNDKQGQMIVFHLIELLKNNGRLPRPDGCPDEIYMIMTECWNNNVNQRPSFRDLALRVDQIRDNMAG
Experimental: as §1, §2

JAK1 = target: T3, JAK1 (Homo sapiens, UniProt P23458); experiment: Functional assay of protein Janus kinases (Caliper mobility shift), JAK1; settings: ATP 100 μM, incubation 150 min; read-out: JAK1 enzymatic activity (IC50) score
T3 construct: purchased Carna Biosciences 08-144
T3 sequence (P23458 850-1154 limits assumed): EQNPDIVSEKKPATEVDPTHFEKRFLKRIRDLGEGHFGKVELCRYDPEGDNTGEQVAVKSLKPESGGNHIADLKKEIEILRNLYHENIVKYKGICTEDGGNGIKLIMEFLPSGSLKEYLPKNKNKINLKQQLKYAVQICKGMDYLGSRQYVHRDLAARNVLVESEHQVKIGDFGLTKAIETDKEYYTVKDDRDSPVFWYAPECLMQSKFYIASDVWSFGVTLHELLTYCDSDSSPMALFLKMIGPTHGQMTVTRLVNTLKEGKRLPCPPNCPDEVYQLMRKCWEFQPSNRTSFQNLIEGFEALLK
Experimental: as §1, §2

JAK3 = target: T4, JAK3 (Homo sapiens, UniProt P52333); experiment: Functional assay of protein Janus kinases (Caliper mobility shift), JAK3; settings: ATP 8 μM, incubation 30 min; read-out: JAK3 enzymatic activity (IC50) score
T4 construct: purchased Carna Biosciences 08-046
T4 sequence (P52333 795-1124 limits assumed): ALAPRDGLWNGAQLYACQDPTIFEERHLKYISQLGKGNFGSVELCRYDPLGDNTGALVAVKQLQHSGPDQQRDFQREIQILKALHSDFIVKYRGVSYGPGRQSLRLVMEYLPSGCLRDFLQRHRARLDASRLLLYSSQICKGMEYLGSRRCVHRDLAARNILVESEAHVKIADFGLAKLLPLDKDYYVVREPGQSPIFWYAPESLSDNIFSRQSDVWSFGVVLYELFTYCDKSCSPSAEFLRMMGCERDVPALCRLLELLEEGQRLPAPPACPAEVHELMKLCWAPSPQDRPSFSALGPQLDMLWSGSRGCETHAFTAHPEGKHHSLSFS
Experimental: as §1, §2

## CN1CCC(NC(=O)c2cccn3c(=O)c4cc(C5CC5)ccc4nc23)CC1 [Example 3, 2-cyclopropyl-N-(1-methylpiperidin-4-yl)-11-oxo-11H-pyrido[2,1-b]quinazoline-6-carboxamide]
TYK2
  IC50: > 1000 nM
JAK2
  IC50: > 1000 nM
JAK1
  IC50: > 1000 nM
JAK3
  IC50: 100 to 1000 nM

## O=C(NC1CCOCC1)c1cccn2c(=O)c3cc(C4CC4)ccc3nc12 [Example 4, 2-cyclopropyl-11-oxo-N-(tetrahydro-2H-pyran-4-yl)-11H-pyrido[2,1-b]quinazoline-6-carboxamide]
TYK2
  IC50: < 100 nM
JAK2
  IC50: > 1000 nM
JAK1
  IC50: > 1000 nM
JAK3
  IC50: 100 to 1000 nM

## CC1COCCC1NC(=O)c1cccn2c(=O)c3cc(C4CC4)ccc3nc12 (centres unmarked) [Example 5, 2-cyclopropyl-N-(3-methyltetrahydro-2H-pyran-4-yl)-11-oxo-11H-pyrido[2,1-b]quinazoline-6-carboxamide]
TYK2
  IC50: < 100 nM
JAK2
  IC50: > 1000 nM
JAK1
  IC50: > 1000 nM
JAK3
  IC50: < 100 nM

## C[C@]1(O)CC[C@H](NC(=O)c2cccn3c(=O)c4cc(C5CC5)ccc4nc23)CC1 [Example 6, 2-cyclopropyl-N-((1R,4R)-4-hydroxy-4-methylcyclohexyl)-11-oxo-11H-pyrido[2,1-b]quinazoline-6-carboxamide]
TYK2
  IC50: < 100 nM
JAK2
  IC50: > 1000 nM
JAK1
  IC50: > 1000 nM
JAK3
  IC50: < 100 nM

## O=C(N[C@H]1CC[C@H](O)CC1)c1cccn2c(=O)c3cc(C4CC4)ccc3nc12 [Example 7, 2-cyclopropyl-N-((1R,4R)-4-hydroxycyclohexyl)-11-oxo-11H-pyrido[2,1-b]quinazoline-6-carboxamide]
TYK2
  IC50: 100 to 1000 nM
JAK2
  IC50: > 1000 nM
JAK1
  IC50: > 1000 nM
JAK3
  IC50: < 100 nM

## O=C(NC1CCCCC1O)c1cccn2c(=O)c3cc(C4CC4)ccc3nc12 (centres unmarked) [Example 8, 2-cyclopropyl-N-(2-hydroxycyclohexyl)-11-oxo-11H-pyrido[2,1-b]quinazoline-6-carboxamide]
TYK2
  IC50: < 100 nM
JAK2
  IC50: > 1000 nM
JAK1
  IC50: > 1000 nM
JAK3
  IC50: 100 to 1000 nM

## O=C(N[C@@H]1CCCC[C@H]1O)c1cccn2c(=O)c3cc(C4CC4)ccc3nc12 [Example 9, 2-cyclopropyl-N-((1R,2R)-2-hydroxycyclohexyl)-11-oxo-11H-pyrido[2,1-b]quinazoline-6-carboxamide]
TYK2
  IC50: > 1000 nM
JAK2
  IC50: > 1000 nM
JAK1
  IC50: > 1000 nM
JAK3
  IC50: 100 to 1000 nM

## O=C(N[C@H]1CCCC[C@H]1O)c1cccn2c(=O)c3cc(C4CC4)ccc3nc12 [Example 10, 2-cyclopropyl-N-((1S,2R)-2-hydroxycyclohexyl)-11-oxo-11H-pyrido[2,1-b]quinazoline-6-carboxamide]
TYK2
  IC50: < 100 nM
JAK2
  IC50: > 1000 nM
JAK1
  IC50: > 1000 nM
JAK3
  IC50: < 100 nM

## O=C(N[C@@H]1CCCC[C@@H]1O)c1cccn2c(=O)c3cc(C4CC4)ccc3nc12 [Example 11, 2-cyclopropyl-N-((1R,2S)-2-hydroxycyclohexyl)-11-oxo-11H-pyrido[2,1-b]quinazoline-6-carboxamide]
TYK2
  IC50: 100 to 1000 nM
JAK2
  IC50: > 1000 nM
JAK1
  IC50: > 1000 nM
JAK3
  IC50: < 100 nM

## O=C(N[C@H]1CCCC[C@@H]1O)c1cccn2c(=O)c3cc(C4CC4)ccc3nc12 [Example 12, 2-cyclopropyl-N-((1S,2S)-2-hydroxycyclohexyl)-11-oxo-11H-pyrido[2,1-b]quinazoline-6-carboxamide]
TYK2
  IC50: 100 to 1000 nM
JAK2
  IC50: > 1000 nM
JAK1
  IC50: > 1000 nM
JAK3
  IC50: 100 to 1000 nM

## O=C(NC1CCOC1)c1cccn2c(=O)c3cc(C4CC4)ccc3nc12 (centres unmarked) [Example 14, 2-cyclopropyl-11-oxo-N-(tetrahydrofuran-3-yl)-11H-pyrido[2,1-b]quinazoline-6-carboxamide]
TYK2
  IC50: < 100 nM
JAK2
  IC50: > 1000 nM
JAK1
  IC50: > 1000 nM
JAK3
  IC50: 100 to 1000 nM

## O=C(NC1CCC(F)(F)CC1)c1cccn2c(=O)c3cc(C4CC4)ccc3nc12 [Example 15, 2-cyclopropyl-N-(4,4-difluorocyclohexyl)-11-oxo-11H-pyrido[2,1-b]quinazoline-6-carboxamide]
TYK2
  IC50: 100 to 1000 nM
JAK2
  IC50: > 1000 nM
JAK1
  IC50: > 1000 nM
JAK3
  IC50: < 100 nM

## O=C(NC1CCCC1)c1cccn2c(=O)c3cc(O)ccc3nc12 [Example 18, N-cyclopentyl-2-hydroxy-11-oxo-11H-pyrido[2,1-b]quinazoline-6-carboxamide]
TYK2
  IC50: < 100 nM
JAK2
  IC50: > 1000 nM
JAK1
  IC50: > 1000 nM
JAK3
  IC50: 100 to 1000 nM

## O=C(NC1CCCCC1)c1cccn2c(=O)c3cc(F)ccc3nc12 [Example 24, N-cyclohexyl-2-fluoro-11-oxo-11H-pyrido[2,1-b]quinazoline-6-carboxamide]
TYK2
  IC50: 100 to 1000 nM
JAK2
  IC50: > 1000 nM
JAK1
  IC50: > 1000 nM
JAK3
  IC50: 100 to 1000 nM

## O=C(NC1CCCC1)c1cccn2c(=O)c3cc(Br)ccc3nc12 [Example 25, 2-bromo-N-cyclopentyl-11-oxo-11H-pyrido[2,1-b]quinazoline-6-carboxamide]
TYK2
  IC50: < 100 nM
JAK2
  IC50: > 1000 nM
JAK1
  IC50: > 1000 nM
JAK3
  IC50: < 100 nM

## O=C(NC1CCCCC1)c1cccn2c(=O)c3cc(Br)ccc3nc12 [Example 26, 2-bromo-N-cyclohexyl-11-oxo-11H-pyrido[2,1-b]quinazoline-6-carboxamide]
TYK2
  IC50: 100 to 1000 nM
JAK2
  IC50: > 1000 nM
JAK1
  IC50: > 1000 nM
JAK3
  IC50: 100 to 1000 nM

## O=C(N[C@H]1CCCC[C@H]1O)c1cccn2c(=O)c3cc(Br)ccc3nc12 [Example 27, 2-bromo-N-((1S,2R)-2-hydroxycyclohexyl)-11-oxo-11H-pyrido[2,1-b]quinazoline-6-carboxamide]
TYK2
  IC50: 100 to 1000 nM
JAK2
  IC50: > 1000 nM
JAK1
  IC50: > 1000 nM
JAK3
  IC50: 100 to 1000 nM

## O=C(NC1CCCCC1)c1cccn2c(=O)c3cc(-c4ccccc4)ccc3nc12 [Example 28, N-cyclohexyl-11-oxo-2-phenyl-11H-pyrido[2,1-b]quinazoline-6-carboxamide]
TYK2
  IC50: 100 to 1000 nM
JAK2
  IC50: > 1000 nM
JAK1
  IC50: > 1000 nM
JAK3
  IC50: 100 to 1000 nM

## O=C(NC1CCCC1)c1cccn2c(=O)c3cc(-c4ccncc4)ccc3nc12 [Example 32, N-cyclopentyl-11-oxo-2-(pyridin-4-yl)-11H-pyrido[2,1-b]quinazoline-6-carboxamide]
TYK2
  IC50: < 100 nM
JAK2
  IC50: > 1000 nM
JAK1
  IC50: > 1000 nM
JAK3
  IC50: 100 to 1000 nM

## O=C(N[C@H]1CCCC[C@H]1O)c1cccn2c(=O)c3cc(-c4ccncc4)ccc3nc12 [Example 34, N-((1S,2R)-2-hydroxycyclohexyl)-11-oxo-2-(pyridin-4-yl)-11H-pyrido[2,1-b]quinazoline-6-carboxamide]
TYK2
  IC50: 100 to 1000 nM
JAK2
  IC50: > 1000 nM
JAK1
  IC50: > 1000 nM
JAK3
  IC50: 100 to 1000 nM

## CN1CCN(c2ccc3nc4c(C(=O)NC5CCCC5)cccn4c(=O)c3c2)CC1 [Example 35, N-cyclopentyl-2-(4-methylpiperazin-1-yl)-11-oxo-11H-pyrido[2,1-b]quinazoline-6-carboxamide]
TYK2
  IC50: 100 to 1000 nM
JAK2
  IC50: > 1000 nM
JAK1
  IC50: > 1000 nM
JAK3
  IC50: < 100 nM

## CN1CCN(c2ccc3nc4c(C(=O)N[C@H]5CCCC[C@H]5O)cccn4c(=O)c3c2)CC1 [Example 37, N-((1S,2R)-2-hydroxycyclohexyl)-2-(4-methylpiperazin-1-yl)-11-oxo-11H-pyrido[2,1-b]quinazoline-6-carboxamide]
TYK2
  IC50: < 100 nM
JAK3
  IC50: 100 to 1000 nM

Source: patent publication US11021479B2, “Pyridoquinazoline derivatives useful as protein kinase inhibitors” (ONCOSTELLAE, S.L., priority 2017, dated 2021)
